Laboratory results published in article PMC7613515, “Reading and erasing of the phosphonium analogue of trimethyllysine by epigenetic proteins” (Communications Chemistry, 2022).
Entries after “also recorded” stand apart in the source; their conditions may differ.

Biological target: T1, KDM4EJmjC (M1–Q337) (Homo sapiens, UniProt B2RXH2)
T1 construct: We chose human KDM4EJmjC (M1–Q337); made in house
T1 sequence (B2RXH2 1-337): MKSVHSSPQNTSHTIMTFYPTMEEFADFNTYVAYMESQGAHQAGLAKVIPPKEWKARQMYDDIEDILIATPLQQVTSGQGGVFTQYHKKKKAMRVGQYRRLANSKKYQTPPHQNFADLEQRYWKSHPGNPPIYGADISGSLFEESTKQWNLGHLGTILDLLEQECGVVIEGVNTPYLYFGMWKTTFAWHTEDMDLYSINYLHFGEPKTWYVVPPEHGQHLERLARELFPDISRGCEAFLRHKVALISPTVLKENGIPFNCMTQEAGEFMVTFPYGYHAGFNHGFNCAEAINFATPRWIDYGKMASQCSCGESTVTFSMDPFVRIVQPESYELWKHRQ
Assay: FDH coupled demethylation assay (formaldehyde release), KDM4EJmjC
Assay type: biochemical
Conditions: KDM4EJmjC 0–10 µM, H3KP9me3 10 µM; n = 3 or 4
Procedure: To test whether formaldehyde is generated by H3KP9me3 demethylation, a formaldehyde dehydrogenase (FDH) coupled assay was employed (Supplementary Fig. 19a)[34],[37]. […]
measurement of the formation of NADH. a FDH enzyme coupled to KDM4E JmjC demethylation assay measuring the levels of […]
(0–50 µM). c Michaelis-Menten analysis. Standard conditions: FDH (1.0 µM), Asc (1.0 mM), Fe(II) (50 µM), 2OG (200 µM) and NAD+ (250 µM). Errors are standard deviations of the mean (n = 2 or 3).
(1 picture or pasted object on this page, not shown here)
Supplementary Fig. 20 FDH activity assay of KDM4E JmjC (0–10 µM) catalysed demethylation of H3K P9me 3 (10 µM) […]
Standard conditions: FDH (1.0 µM), Ascorbate (1.0 mM), Fe(II) (50 µM), 2OG (200 µM) and NAD + (250 µM). Errors are standard deviations of the mean (n = 3 or 4).

ARTKQTAR(KPme3)STGGKA [H3KP9me3, histone H3 residues 1–15 with trimethylphosphonium lysine analogue at position 9]
formaldehyde release: in an enzyme dependent manner that releases formaldehyde; also recorded: time-dependent increase in formaldehyde
